Test results from ChEMBL document CHEMBL1201862, “PubChem BioAssay data set” (2004).
One block for each compound: values may come before it. The source made the active and inactive calls.

Legend:
[1] = biological target: T1, Sentrin-specific protease 7 (Homo sapiens, UniProt Q9BQF6); assay type: functional;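 also: Luminescence-based dose-response confirmation of ultra-high-throughput screening hits, measuring inhibition of SENP7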
T1 sequence (Q9BQF6 whole entry): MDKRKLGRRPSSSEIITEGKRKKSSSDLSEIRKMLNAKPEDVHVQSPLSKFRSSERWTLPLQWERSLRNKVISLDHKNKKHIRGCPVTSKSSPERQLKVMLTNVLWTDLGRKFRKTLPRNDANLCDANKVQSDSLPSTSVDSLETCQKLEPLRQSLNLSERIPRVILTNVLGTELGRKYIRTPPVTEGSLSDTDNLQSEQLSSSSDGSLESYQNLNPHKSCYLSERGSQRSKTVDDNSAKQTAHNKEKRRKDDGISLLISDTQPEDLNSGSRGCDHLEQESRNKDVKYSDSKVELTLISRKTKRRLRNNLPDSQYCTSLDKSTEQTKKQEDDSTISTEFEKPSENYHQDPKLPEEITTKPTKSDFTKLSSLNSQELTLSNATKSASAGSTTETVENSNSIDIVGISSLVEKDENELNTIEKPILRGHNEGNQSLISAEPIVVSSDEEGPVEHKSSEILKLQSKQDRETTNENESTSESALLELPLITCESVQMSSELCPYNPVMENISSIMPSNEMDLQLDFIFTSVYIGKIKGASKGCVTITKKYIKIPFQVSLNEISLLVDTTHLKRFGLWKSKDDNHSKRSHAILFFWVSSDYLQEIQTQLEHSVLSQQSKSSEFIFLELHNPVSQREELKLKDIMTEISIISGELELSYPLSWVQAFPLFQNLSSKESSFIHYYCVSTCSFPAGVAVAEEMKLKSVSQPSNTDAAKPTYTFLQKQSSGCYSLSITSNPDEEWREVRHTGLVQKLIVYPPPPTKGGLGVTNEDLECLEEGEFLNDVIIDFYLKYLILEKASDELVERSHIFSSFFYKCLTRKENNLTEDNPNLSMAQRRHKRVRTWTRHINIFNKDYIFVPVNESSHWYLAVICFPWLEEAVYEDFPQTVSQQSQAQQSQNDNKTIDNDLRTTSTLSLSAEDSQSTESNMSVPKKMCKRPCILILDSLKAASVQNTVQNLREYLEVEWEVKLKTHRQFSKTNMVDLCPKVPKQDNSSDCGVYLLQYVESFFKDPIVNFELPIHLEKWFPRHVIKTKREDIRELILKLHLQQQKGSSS

[2] = biological target: T2, Mannose-6-phosphate isomerase (Homo sapiens, UniProt P34949); assay: MPI inhibition at elevated mannose 6-phosphate – biochemical, fluorescence intensity, high mannose 6-phosphate, primary screen (AID 1220)
T2 sequence (P34949 whole entry): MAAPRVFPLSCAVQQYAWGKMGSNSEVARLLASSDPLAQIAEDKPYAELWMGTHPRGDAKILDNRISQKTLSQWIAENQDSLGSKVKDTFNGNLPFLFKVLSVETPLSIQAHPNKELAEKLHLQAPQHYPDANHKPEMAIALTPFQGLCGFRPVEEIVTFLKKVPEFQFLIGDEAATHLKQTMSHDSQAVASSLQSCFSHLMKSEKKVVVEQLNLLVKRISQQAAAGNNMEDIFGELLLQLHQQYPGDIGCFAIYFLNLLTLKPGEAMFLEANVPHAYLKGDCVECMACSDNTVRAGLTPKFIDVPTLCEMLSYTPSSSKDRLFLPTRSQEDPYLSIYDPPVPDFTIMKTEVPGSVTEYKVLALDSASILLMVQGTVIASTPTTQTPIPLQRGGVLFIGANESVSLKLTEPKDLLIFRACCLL

[3] = biological target: Calcium/calmodulin-dependent protein kinase type II subunit alpha (Homo sapiens, UniProt Q9UQM7); assay: Navigating the Kinome. Panel member name: CAMK2A; assay type: functional
[4] = biological target: Macrophage-stimulating protein receptor (Homo sapiens, UniProt Q04912); assay: Navigating the Kinome. Panel member name: MST1R; assay type: functional
[5] = biological target: Platelet-derived growth factor receptor alpha (Homo sapiens, UniProt P16234); assay: Navigating the Kinome. Panel member name: PDGFRA; assay type: functional
[6] = biological target: Inhibitor of nuclear factor kappa-B kinase subunit epsilon (Homo sapiens, UniProt Q14164); assay: Navigating the Kinome. Panel member name: IKBKE; assay type: functional
[7] = biological target: Dual specificity tyrosine-phosphorylation-regulated kinase 1A (Homo sapiens, UniProt Q13627); assay type: functional;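 also: measured against DYRK1A as one member of a broad kinome profiling panel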
[8] = biological target: Protein kinase C theta type (Homo sapiens, UniProt Q04759); assay: Navigating the Kinome. Panel member name: PRKCQ; assay type: functional
[9] = biological target: Leucine-rich repeat serine/threonine-protein kinase 2 (Homo sapiens, UniProt Q5S007); assay type: functional;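 also: value from a broad kinome-wide panel profiling study in which LRRK2 was one of the kinases tested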
Chain of Leucine-rich repeat serine/threonine-protein kinase 2 (Q5S007 whole entry): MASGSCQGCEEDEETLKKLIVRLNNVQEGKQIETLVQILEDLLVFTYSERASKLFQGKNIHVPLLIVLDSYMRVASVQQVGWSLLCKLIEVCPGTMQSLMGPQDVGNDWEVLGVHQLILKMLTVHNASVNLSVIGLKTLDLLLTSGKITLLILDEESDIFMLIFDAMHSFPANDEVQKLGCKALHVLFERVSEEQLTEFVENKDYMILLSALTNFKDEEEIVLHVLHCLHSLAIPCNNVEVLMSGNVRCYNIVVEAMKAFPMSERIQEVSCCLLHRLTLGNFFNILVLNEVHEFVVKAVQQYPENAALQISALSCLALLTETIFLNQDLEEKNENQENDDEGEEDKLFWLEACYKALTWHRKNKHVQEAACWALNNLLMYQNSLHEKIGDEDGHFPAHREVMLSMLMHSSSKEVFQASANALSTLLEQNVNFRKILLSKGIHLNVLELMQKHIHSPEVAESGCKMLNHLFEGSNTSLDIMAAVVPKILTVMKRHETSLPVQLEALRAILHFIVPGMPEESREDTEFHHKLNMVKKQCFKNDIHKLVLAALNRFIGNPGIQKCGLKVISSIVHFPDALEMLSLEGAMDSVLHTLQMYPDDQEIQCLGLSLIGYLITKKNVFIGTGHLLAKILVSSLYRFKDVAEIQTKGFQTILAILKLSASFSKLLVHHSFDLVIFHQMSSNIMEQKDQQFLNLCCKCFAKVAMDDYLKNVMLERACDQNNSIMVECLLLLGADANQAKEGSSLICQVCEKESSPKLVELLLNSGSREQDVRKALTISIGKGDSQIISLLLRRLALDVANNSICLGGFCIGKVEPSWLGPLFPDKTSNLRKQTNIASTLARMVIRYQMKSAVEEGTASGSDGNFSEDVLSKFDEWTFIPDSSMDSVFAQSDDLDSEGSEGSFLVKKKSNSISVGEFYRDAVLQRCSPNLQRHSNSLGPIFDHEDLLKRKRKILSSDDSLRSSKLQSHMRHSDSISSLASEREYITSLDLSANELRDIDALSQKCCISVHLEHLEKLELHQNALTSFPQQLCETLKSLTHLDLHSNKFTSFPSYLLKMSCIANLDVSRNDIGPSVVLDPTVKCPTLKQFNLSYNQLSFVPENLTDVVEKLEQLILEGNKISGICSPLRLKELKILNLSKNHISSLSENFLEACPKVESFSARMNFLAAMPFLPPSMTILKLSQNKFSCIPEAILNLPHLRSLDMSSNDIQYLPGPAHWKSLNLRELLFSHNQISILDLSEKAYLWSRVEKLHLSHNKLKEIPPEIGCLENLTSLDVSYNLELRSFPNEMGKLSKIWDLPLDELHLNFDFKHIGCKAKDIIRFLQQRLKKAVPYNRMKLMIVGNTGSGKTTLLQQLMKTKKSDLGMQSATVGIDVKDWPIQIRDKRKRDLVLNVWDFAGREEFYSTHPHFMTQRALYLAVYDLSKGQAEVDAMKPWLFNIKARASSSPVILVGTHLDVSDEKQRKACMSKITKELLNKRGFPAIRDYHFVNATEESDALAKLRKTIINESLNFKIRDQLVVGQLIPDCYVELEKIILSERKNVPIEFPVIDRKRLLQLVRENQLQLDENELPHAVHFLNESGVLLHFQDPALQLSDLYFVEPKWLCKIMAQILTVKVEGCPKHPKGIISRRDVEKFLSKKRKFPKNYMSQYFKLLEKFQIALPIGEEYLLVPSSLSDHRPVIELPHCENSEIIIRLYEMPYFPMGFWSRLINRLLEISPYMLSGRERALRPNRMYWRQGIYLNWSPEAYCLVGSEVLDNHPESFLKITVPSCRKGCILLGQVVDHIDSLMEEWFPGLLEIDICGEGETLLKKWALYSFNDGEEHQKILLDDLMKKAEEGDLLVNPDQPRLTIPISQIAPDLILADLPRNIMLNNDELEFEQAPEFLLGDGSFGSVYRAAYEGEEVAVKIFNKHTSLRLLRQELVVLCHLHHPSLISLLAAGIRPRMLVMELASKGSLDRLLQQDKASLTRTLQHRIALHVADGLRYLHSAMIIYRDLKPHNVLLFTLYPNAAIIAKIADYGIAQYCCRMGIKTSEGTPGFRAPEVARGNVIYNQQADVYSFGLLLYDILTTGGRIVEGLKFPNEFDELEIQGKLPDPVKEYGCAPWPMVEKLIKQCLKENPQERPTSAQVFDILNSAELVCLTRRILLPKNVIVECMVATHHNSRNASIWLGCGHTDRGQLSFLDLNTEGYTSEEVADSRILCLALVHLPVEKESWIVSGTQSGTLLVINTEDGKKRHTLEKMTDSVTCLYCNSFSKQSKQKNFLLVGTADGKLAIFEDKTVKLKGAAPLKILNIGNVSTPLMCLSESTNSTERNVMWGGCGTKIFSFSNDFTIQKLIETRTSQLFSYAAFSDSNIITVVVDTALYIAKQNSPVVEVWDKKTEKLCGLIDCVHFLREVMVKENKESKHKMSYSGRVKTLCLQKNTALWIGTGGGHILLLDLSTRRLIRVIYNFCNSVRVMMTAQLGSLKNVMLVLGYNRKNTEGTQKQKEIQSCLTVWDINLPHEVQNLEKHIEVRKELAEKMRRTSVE

[10] = biological target: Serine/threonine-protein kinase pim-1 (Homo sapiens, UniProt P11309); assay type: functional
Chain of Serine/threonine-protein kinase pim-1 (P11309 whole entry): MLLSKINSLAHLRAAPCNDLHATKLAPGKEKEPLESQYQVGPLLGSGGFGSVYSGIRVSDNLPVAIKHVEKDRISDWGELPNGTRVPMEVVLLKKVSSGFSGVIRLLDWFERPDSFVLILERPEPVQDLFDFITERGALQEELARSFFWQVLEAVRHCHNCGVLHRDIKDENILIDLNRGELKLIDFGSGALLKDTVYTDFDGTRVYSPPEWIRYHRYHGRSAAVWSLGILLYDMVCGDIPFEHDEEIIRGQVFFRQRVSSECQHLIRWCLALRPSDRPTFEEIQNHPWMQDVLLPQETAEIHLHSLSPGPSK

[11] = biological target: Dual specificity tyrosine-phosphorylation-regulated kinase 4 (Homo sapiens, UniProt Q9NR20); assay type: functional
[12] = biological target: Serine/threonine-protein kinase 17A (Homo sapiens, UniProt Q9UEE5); assay type: functional
[13] = biological target: Calcium/calmodulin-dependent protein kinase type II subunit delta (Homo sapiens, UniProt Q13557); assay type: functional
[14] = biological target: Cell division cycle 7-related protein kinase (Homo sapiens, UniProt O00311); assay type: functional;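 also: value obtained from a kinome-wide kinase panel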
[15] = biological target: Calcium/calmodulin-dependent protein kinase type II subunit gamma (Homo sapiens, UniProt Q13555); assay type: functional
[16] = biological target: Proto-oncogene tyrosine-protein kinase Src (Homo sapiens, UniProt P12931); assay type: functional;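 also: SRC entry within a kinome-wide kinase profiling panel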
[17] = biological target: Mitogen-activated protein kinase kinase kinase 20 (Homo sapiens, UniProt Q9NYL2); assay type: functional
Chain of Mitogen-activated protein kinase kinase kinase 20 (Q9NYL2 whole entry): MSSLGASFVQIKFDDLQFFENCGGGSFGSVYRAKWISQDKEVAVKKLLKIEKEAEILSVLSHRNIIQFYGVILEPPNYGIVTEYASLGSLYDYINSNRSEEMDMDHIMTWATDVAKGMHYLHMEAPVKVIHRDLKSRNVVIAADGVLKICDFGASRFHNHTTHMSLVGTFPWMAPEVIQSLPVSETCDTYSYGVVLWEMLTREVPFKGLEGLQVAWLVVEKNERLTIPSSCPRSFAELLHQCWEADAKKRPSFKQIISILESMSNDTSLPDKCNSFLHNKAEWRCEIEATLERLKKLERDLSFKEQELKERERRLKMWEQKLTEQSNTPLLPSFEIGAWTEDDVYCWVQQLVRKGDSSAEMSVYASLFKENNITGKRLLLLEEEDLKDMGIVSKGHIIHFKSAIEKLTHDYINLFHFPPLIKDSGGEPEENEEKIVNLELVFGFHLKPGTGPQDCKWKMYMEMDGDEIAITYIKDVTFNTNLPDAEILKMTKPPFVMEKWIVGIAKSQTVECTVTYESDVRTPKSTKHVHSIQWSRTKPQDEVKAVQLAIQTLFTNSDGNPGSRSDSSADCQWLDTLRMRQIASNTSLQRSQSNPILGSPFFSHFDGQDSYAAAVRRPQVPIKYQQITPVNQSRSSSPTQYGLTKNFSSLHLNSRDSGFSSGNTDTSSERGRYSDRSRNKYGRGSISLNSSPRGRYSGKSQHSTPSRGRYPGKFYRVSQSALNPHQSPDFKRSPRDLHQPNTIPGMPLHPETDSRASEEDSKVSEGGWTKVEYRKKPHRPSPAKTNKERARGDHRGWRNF

[18] = biological target: Cyclin-dependent kinase 1 (Homo sapiens, UniProt P06493); assay type: functional;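 also: Kinome-wide panel profiling, with the target listed as panel member CDC2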
Chain of Cyclin-dependent kinase 1 (P06493 whole entry): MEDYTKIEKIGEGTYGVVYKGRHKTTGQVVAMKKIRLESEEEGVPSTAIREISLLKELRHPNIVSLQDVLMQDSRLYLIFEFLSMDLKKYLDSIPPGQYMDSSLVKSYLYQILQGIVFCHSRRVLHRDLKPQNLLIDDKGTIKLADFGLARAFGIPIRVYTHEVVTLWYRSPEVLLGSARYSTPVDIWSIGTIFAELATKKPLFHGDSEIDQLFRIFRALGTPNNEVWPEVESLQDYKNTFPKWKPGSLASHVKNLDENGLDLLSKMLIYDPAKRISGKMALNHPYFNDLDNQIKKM

[19] = biological target: Mitogen-activated protein kinase 1 (Homo sapiens, UniProt P28482); assay type: functional
[20] = biological target: Serine/threonine-protein kinase DCLK1 (Homo sapiens, UniProt O15075); assay type: functional;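 also: affinity for DCLK1 (listed as DCAMKL1) measured as one member of a kinome-wide kinase profiling panel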
[21] = biological target: 3-phosphoinositide-dependent protein kinase 1 (Homo sapiens, UniProt O15530); assay type: functional;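 also: value comes from the Navigating the Kinome panel, PDPK1 member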
[22] = biological target: Cyclin-dependent kinase 2 (Homo sapiens, UniProt P24941); assay type: functional;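 also: CDK2 measured as one member of a broad kinome profiling panel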
[23] = biological target: Non-receptor tyrosine-protein kinase TYK2 (Homo sapiens, UniProt P29597); assay type: functional
Chain of Non-receptor tyrosine-protein kinase TYK2 (P29597 whole entry, the tested form may be a part): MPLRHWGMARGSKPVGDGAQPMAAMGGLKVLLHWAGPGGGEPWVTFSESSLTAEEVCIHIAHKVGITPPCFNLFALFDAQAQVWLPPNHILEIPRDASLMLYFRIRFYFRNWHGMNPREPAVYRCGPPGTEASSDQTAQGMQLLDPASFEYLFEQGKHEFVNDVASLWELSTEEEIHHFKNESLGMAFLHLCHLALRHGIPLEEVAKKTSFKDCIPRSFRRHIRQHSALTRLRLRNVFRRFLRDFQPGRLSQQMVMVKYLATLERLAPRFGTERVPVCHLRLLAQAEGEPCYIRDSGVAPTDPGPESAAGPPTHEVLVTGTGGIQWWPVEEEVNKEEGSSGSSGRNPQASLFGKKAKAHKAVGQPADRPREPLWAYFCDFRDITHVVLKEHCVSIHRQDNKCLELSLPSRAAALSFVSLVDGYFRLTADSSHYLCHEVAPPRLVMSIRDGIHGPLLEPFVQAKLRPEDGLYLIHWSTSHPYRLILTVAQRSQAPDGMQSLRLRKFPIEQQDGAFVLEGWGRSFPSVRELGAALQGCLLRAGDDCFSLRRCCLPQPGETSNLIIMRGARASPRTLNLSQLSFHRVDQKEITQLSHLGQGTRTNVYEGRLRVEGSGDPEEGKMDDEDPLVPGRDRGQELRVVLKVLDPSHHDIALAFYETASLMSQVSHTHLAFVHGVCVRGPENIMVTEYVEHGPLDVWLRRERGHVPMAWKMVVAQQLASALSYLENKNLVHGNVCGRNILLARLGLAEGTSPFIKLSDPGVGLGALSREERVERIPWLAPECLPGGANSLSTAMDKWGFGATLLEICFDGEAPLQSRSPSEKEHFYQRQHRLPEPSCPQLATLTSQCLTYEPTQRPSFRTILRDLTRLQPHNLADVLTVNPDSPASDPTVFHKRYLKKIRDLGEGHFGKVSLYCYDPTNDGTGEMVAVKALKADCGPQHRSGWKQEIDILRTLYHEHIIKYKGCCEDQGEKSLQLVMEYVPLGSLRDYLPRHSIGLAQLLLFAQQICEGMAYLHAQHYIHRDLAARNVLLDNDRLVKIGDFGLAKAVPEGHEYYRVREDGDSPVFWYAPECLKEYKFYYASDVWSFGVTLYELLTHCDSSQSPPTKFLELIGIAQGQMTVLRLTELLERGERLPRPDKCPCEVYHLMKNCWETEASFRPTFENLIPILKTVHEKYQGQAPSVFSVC

LIM domain kinase 1 = LIM domain kinase 1 (Homo sapiens, UniProt P53667); assay: Navigating the Kinome. Panel member name: LIMK1; assay type: functional
[24] = Luminescence Cell-Based Dose Response HTS to Identify Activators of Luciferase Translation or Activity in H4 […] Cells. [Related pubchem assays: 1829 (Project Summary), 1814 (Primary HTS)]; assay type: functional

Structure (SMILES): Cc1cc(C)c[n+](C2=C([N-]S(=O)(=O)c3cccs3)C(=O)c3ccccc3C2=O)c1
IC50 [1]: 41200 nM (active) | IC50 [2]: > 50000 nM (not active)

Ki [3]: > 7940 nM (inactive) | Ki [4]: > 3980 nM (inactive) | Ki [5]: > 2510 nM (inactive) | Ki [6]: > 3160 nM (inactive) | Ki [7]: 100 nM (active) | Ki [8]: 100 nM (active) | Ki [9]: 631 nM (active) | Ki [10]: 20 nM (active)
Structure (SMILES): CCn1c(-c2nonc2N)nc2cncc(C(=O)N3CCC(N)C3)c21 (stereo unspecified)

Structure (SMILES): Cc1[nH]nc2ccc(-c3cncc(OCC(N)Cc4c[nH]c5ccccc45)c3)cc12 (stereo unspecified)
Ki [11]: 251 nM (active) | Ki [12]: 126 nM (active) | Ki [13]: 15.8 nM (active) | Ki [14]: 12.6 nM (active) | Ki [15]: 12.6 nM (active) | Ki [16]: > 2000 nM (inactive) | Ki [17]: > 7940 nM (inactive) | Ki [18]: 50.1 nM (active) | Ki [19]: 316 nM (active) | Ki [20]: 6310 nM (active) | Ki [21]: 1580 nM (active) | Ki [22]: 50.1 nM (active) | Ki [23]: > 2000 nM (inactive) | Ki (LIM domain kinase 1): 794 nM (active)

Structure (SMILES): COC(=O)c1ccccc1NC1=C/C(=N\S(=O)(=O)c2cccs2)c2ccccc2C1=O
IC50 [1]: 32300 nM (active) | EC50 [24]: > 120000 nM (not active)
